This note sets out measurements from PubChem BioAssay AID651630 (Sanford-Burnham Center for Chemical Genomics, 2012).

Active and inactive are the calls of the source.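 The calls were made as follows: active = lipid-stain IC50 at or below a set limit, with nuclear-stain toxicity IC50 at least five times higher; inactive = the rest.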 Where only a bound is given, the exact number is not on record here.

The subject of one assay is TAG. In words: TAG lipid buildup inhibition with viability readout – cell-based, panel, Nile Red and DAPI fluorescence, H9c2, dose response (AID 651630).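 Also: cells exposed to compound overnight before fixation and staining.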 The following applies: H9c2 cells, Nile Red TAG fluorescence, oleic acid.
For a further assay, the system named is DAPI. The assay is described as above. The settings on record: H9c2 cells, DAPI nuclear fluorescence (cytotoxicity counter-readout), oleic acid.

In general, IC50 refers to the midpoint of a concentration-inhibition curve. Turning to `COc1ccc2[nH]c3c(c2c1)CCN1C(=O)C(CC(=O)NCC24CC5CC(CC(C5)C2)C4)C[C@H](C(=O)N2CCOCC2)[C@@]31CCC1CCCC1` (some centres undefined), the IC50 in the assay on TAG (run 1) is 4.99 µM; in the assay on TAG (run 2), more than 25 µM. For the same compound, the IC50 cytotoxicity (DAPI nuclear signal decrease) in the assay with DAPI (mean of runs) is > 25 µM (inactive); with DAPI (run 1) it was more than 25 µM; in the assay on DAPI (run 2), more than 25 µM.

Consider `Cc1ccc(Cn2c(C(C)Nc3nc(-c4ccc(Cl)c([N+](=O)[O-])c4)cs3)nc3cc(C(F)(F)F)ccc32)cc1` (centres undefined), for which the IC50 in the assay on TAG (mean of runs) was 8.37 µM; in the assay with TAG (run 1), 6.7 µM; in the assay with TAG (run 2), 10 µM. Further, the IC50 cytotoxicity (DAPI nuclear signal decrease) in the assay on DAPI (run 1) was more than 25 µM; with DAPI (run 2) it was 7.97 µM.

As to `C=CCn1c(N)c(C(=O)Nc2ccccc2)c2nc3ccccc3nc21`, the IC50 is 6.11 µM with TAG (mean of runs), 6.18 µM with TAG (run 1) and 6.04 µM in the assay on TAG (run 2). The IC50 cytotoxicity (DAPI nuclear signal decrease) is > 25 µM (inactive) in the assay on DAPI (mean of runs), more than 25 µM with DAPI (run 1) and more than 25 µM with DAPI (run 2).

On to `CC1(C(=O)NCc2ccco2)Cc2c(-c3ccc4c(c3)OCO4)ccnc2O1` (centres undefined), for which the IC50 with TAG (run 1) is 17.1 µM; in the assay with TAG (run 2) it was more than 25 µM. In addition, the IC50 cytotoxicity (DAPI nuclear signal decrease) was > 25 µM (inactive) in the assay on DAPI (mean of runs), more than 25 µM in the assay on DAPI (run 1) and more than 25 µM with DAPI (run 2).

With `C=CCC[C@@H](Cc1ccc(F)cc1)C(=O)OC[C@@H](Cc1c[nH]c2ccccc12)NC(=O)[C@@H](CC=C)CC(=O)N(CCO)Cc1ccccc1`, the IC50 was 8.26 µM in the assay on TAG (mean of runs), 7.1 µM in the assay on TAG (run 1) and 9.42 µM with TAG (run 2). The IC50 cytotoxicity (DAPI nuclear signal decrease) with DAPI (mean of runs) is > 25 µM (inactive); in the assay on DAPI (run 1) it was more than 25 µM; with DAPI (run 2), more than 25 µM.

Take `CC(=O)O[C@H]1C(=O)[C@]2(C)[C@H]([C@H](OC(=O)c3ccccc3)[C@]3(O)C[C@H](OC(=O)[C@H](O)[C@@H](NC(=O)c4ccccc4)c4ccccc4)C(C)=C1C3(C)C)[C@]1(OC(C)=O)CO[C@@H]1C[C@@H]2O`: the IC50 is > 25 µM (inactive) in the assay with TAG (mean of runs), more than 25 µM in the assay on TAG (run 1) and more than 25 µM in the assay on TAG (run 2). For the same compound, the IC50 cytotoxicity (DAPI nuclear signal decrease) in the assay with DAPI (mean of runs) was > 25 µM (inactive); with DAPI (run 1) it was more than 25 µM; with DAPI (run 2), more than 25 µM.

As to `Cc1cc(NC(=O)CSc2nc(-c3cccs3)nc3ccccc23)no1`, the IC50 in the assay on TAG (mean of runs) was 17.5 µM (inactive); in the assay on TAG (run 1) it was 14.4 µM; in the assay with TAG (run 2) it was 20.6 µM. Besides, the IC50 cytotoxicity (DAPI nuclear signal decrease) is > 25 µM (inactive) in the assay with DAPI (mean of runs), more than 25 µM with DAPI (run 1) and more than 25 µM in the assay on DAPI (run 2).

Regarding `Cc1onc(-c2ccccc2)c1C(=O)Nc1cc(C(F)(F)F)ccc1N1CCOCC1`, the IC50 was 20.1 µM (inactive) in the assay with TAG (mean of runs), 15.4 µM in the assay with TAG (run 1) and 24.8 µM with TAG (run 2). In addition, the IC50 cytotoxicity (DAPI nuclear signal decrease) with DAPI (mean of runs) was > 25 µM (inactive); with DAPI (run 1), more than 25 µM; with DAPI (run 2) it was more than 25 µM.

In the case of `COc1cc(/C=C/CN2CCC(C(=O)NC(c3ccc(F)cc3)c3ccc4ccccc4n3)CC2)ccc1OC(C)=O` (centres undefined), the IC50 was 11.6 µM in the assay on TAG (mean of runs), 13.3 µM in the assay with TAG (run 1) and 9.99 µM in the assay with TAG (run 2). Moreover, the IC50 cytotoxicity (DAPI nuclear signal decrease) in the assay with DAPI (mean of runs) was > 25 µM (inactive); in the assay with DAPI (run 1), more than 25 µM; in the assay on DAPI (run 2), more than 25 µM.

For the compound `Cc1cc(C)c2nc(-c3ccncc3)cc(C(=O)N3CCN(Cc4ccccc4Cl)CC3)c2c1`, the IC50 with TAG (mean of runs) is 12.1 µM; in the assay on TAG (run 1) it was 14.2 µM; with TAG (run 2) it was 10.1 µM. Besides, the figures for the IC50 cytotoxicity (DAPI nuclear signal decrease) in the assay on DAPI (mean of runs), in the assay on DAPI (run 1) and with DAPI (run 2) were > 25 µM (inactive), more than 25 µM and more than 25 µM, respectively.

Take `CCCCCCSc1ccc([C@H]2N[C@@](CC(C)C)(C(=O)OC)[C@H]3C(=O)N(C)C(=O)[C@@H]23)cc1OC`: the IC50 was > 25 µM (inactive) in the assay with TAG (mean of runs), more than 25 µM in the assay with TAG (run 1) and more than 25 µM in the assay on TAG (run 2). The IC50 cytotoxicity (DAPI nuclear signal decrease) in the assay on DAPI (mean of runs) was > 25 µM (inactive); in the assay with DAPI (run 1), more than 25 µM; in the assay with DAPI (run 2), more than 25 µM.

With `CC1(c2ccccc2)CC(C)(C)N(C(=O)c2cc([N+](=O)[O-])cc([N+](=O)[O-])c2)c2ccccc21` (centres undefined), the IC50 with TAG (mean of runs) was 9.21 µM; in the assay with TAG (run 1), 10.4 µM; with TAG (run 2), 7.99 µM. Further, the figures for the IC50 cytotoxicity (DAPI nuclear signal decrease) in the assay with DAPI (mean of runs), in the assay with DAPI (run 1) and in the assay with DAPI (run 2) were > 25 µM (inactive), more than 25 µM and more than 25 µM, respectively.

Turning to `COc1ccc(S(=O)(=O)N2N=C(C)Oc3ccccc3C2=O)cc1`, the IC50 in the assay with TAG (mean of runs) was > 25 µM (inactive); in the assay with TAG (run 1), more than 25 µM; in the assay with TAG (run 2), more than 25 µM. The figures for the IC50 cytotoxicity (DAPI nuclear signal decrease) in the assay with DAPI (mean of runs), with DAPI (run 1) and in the assay on DAPI (run 2) were > 25 µM (inactive), more than 25 µM and more than 25 µM, respectively.

Take `CCOCCOC(=O)c1[nH]c2c(c1C)C(=O)CC(c1cccs1)C2` (centres undefined): the IC50 in the assay with TAG (mean of runs) is > 25 µM (inactive); in the assay with TAG (run 1), more than 25 µM; in the assay with TAG (run 2), more than 25 µM. The results for the IC50 cytotoxicity (DAPI nuclear signal decrease) with DAPI (mean of runs), in the assay on DAPI (run 1) and in the assay on DAPI (run 2) were > 25 µM (inactive), more than 25 µM and more than 25 µM, respectively.

Regarding `COc1cc2c3c(c1)c(C1=NC(=S)NC1=O)c(O)n3C(C)(C)C=C2C`, the IC50 in the assay on TAG (mean of runs) is 6 µM; with TAG (run 1), 6.7 µM; in the assay with TAG (run 2), 5.3 µM. Also, the results for the IC50 cytotoxicity (DAPI nuclear signal decrease) with DAPI (mean of runs), in the assay on DAPI (run 1) and in the assay with DAPI (run 2) were > 25 µM (inactive), more than 25 µM and more than 25 µM, respectively.

As for `O=C(Nc1ccc(-c2csc(Nc3ccccc3)n2)cc1)c1cccc(C(F)(F)F)c1`, the IC50 in the assay on TAG (run 1) was 15.3 µM; in the assay with TAG (run 2), more than 25 µM. Also, the IC50 cytotoxicity (DAPI nuclear signal decrease) in the assay with DAPI (mean of runs) was > 25 µM (inactive); in the assay with DAPI (run 1) it was more than 25 µM; in the assay with DAPI (run 2) it was more than 25 µM.

As to `Cc1occc1C(=O)NC(C)CCc1ccccc1` (centres undefined), the IC50 with TAG (mean of runs) is > 25 µM (inactive); in the assay with TAG (run 1), more than 25 µM; in the assay with TAG (run 2), more than 25 µM. The IC50 cytotoxicity (DAPI nuclear signal decrease) is > 25 µM (inactive) in the assay on DAPI (mean of runs), more than 25 µM with DAPI (run 1) and more than 25 µM in the assay with DAPI (run 2).

With `CCC(C)(C)NC(=O)C(c1ccc(OC)cc1)N(Cc1cccs1)C(=O)CCC(=O)Nc1cc(C)on1` (centres undefined), the IC50 is 13.3 µM in the assay with TAG (mean of runs), 13.1 µM in the assay on TAG (run 1) and 13.5 µM in the assay with TAG (run 2). Moreover, the values for the IC50 cytotoxicity (DAPI nuclear signal decrease) in the assay on DAPI (mean of runs), in the assay on DAPI (run 1) and in the assay on DAPI (run 2) were > 25 µM (inactive), more than 25 µM and more than 25 µM, respectively.

On to `COc1ccc2nc3cc([N+](=O)[O-])ccc3c(NNc3ccc([N+](=O)[O-])cc3)c2c1`, for which the IC50 in the assay with TAG (mean of runs) is 5.93 µM; with TAG (run 1), 10.4 µM; in the assay with TAG (run 2) it was 1.44 µM. In addition, the IC50 cytotoxicity (DAPI nuclear signal decrease) in the assay with DAPI (mean of runs) was > 25 µM (inactive); in the assay with DAPI (run 1), more than 25 µM; in the assay on DAPI (run 2), more than 25 µM.

For `CC(C)c1ccc(NC(=O)Nc2nc(C(N)C3CCCCC3)cs2)cc1` (centres undefined), the IC50 is 8.38 µM in the assay with TAG (mean of runs), 8.24 µM in the assay with TAG (run 1) and 8.53 µM in the assay with TAG (run 2). Also, the IC50 cytotoxicity (DAPI nuclear signal decrease) in the assay on DAPI (mean of runs) is 17.3 µM (inactive); with DAPI (run 1), 16 µM; in the assay with DAPI (run 2) it was 18.6 µM.

For `NC(=O)c1cc(-c2ccccc2)nc(N2CCOCC2)n1`, the values for the IC50 with TAG (run 1) and with TAG (run 2) were more than 25 µM and 20.3 µM, respectively. In addition, the IC50 cytotoxicity (DAPI nuclear signal decrease) in the assay on DAPI (mean of runs) was > 25 µM (inactive); in the assay on DAPI (run 1), more than 25 µM; with DAPI (run 2), more than 25 µM.

In the case of `Cc1ccc(CN(C)C(=O)CN2C(=O)NC3(CCCc4ccccc43)C2=O)c(C)c1` (centres undefined), the IC50 in the assay with TAG (run 1) was 21.7 µM; in the assay with TAG (run 2) it was more than 25 µM. For the same compound, the IC50 cytotoxicity (DAPI nuclear signal decrease) in the assay on DAPI (mean of runs) is > 25 µM (inactive); in the assay with DAPI (run 1) it was more than 25 µM; in the assay with DAPI (run 2) it was more than 25 µM.

Consider `CCOc1ccccc1NC(=O)CCC(=O)Nc1ccccc1OCC`, for which the results for the IC50 in the assay on TAG (mean of runs), in the assay on TAG (run 1) and with TAG (run 2) were > 25 µM (inactive), more than 25 µM and more than 25 µM, respectively. The IC50 cytotoxicity (DAPI nuclear signal decrease) in the assay on DAPI (mean of runs) is > 25 µM (inactive); in the assay with DAPI (run 1) it was more than 25 µM; in the assay with DAPI (run 2), more than 25 µM.

For `Cc1onc(-c2ccc(Cl)cc2Cl)c1-c1csc(N/N=C/c2ccccc2)n1`, the IC50 in the assay on TAG (mean of runs) was > 25 µM (inactive); in the assay on TAG (run 1) it was more than 25 µM; with TAG (run 2), more than 25 µM. Moreover, the results for the IC50 cytotoxicity (DAPI nuclear signal decrease) in the assay on DAPI (mean of runs), with DAPI (run 1) and in the assay with DAPI (run 2) were > 25 µM (inactive), more than 25 µM and more than 25 µM, respectively.

In the case of `Cc1ccc(-n2cc(CNCCCn3cccn3)c(-c3cccc(C)c3)n2)cc1`, the results for the IC50 in the assay with TAG (mean of runs), with TAG (run 1) and with TAG (run 2) were > 25 µM (inactive), more than 25 µM and more than 25 µM, respectively. In addition, the values for the IC50 cytotoxicity (DAPI nuclear signal decrease) in the assay on DAPI (mean of runs), in the assay with DAPI (run 1) and in the assay with DAPI (run 2) were > 25 µM (inactive), more than 25 µM and more than 25 µM, respectively.

Turning to `CCOc1ccc(CN(C)C(=O)CCl)cc1`, the 50% inhibitory concentration (IC50) with TAG (run 1) is more than 25 µM; in the assay with TAG (run 2), 22.6 µM. The IC50 cytotoxicity (DAPI nuclear signal decrease) with DAPI (mean of runs) is > 25 µM (inactive); with DAPI (run 1), more than 25 µM; in the assay on DAPI (run 2), more than 25 µM.
